This note sets out measurements from US12569502B2, “Use of bile acids and derivatives thereof in preparation of GPR39 agonist” (PEKING UNIVERSITY, priority 2019, dated 2026).

For orientation: EC50 means the concentration needed to bring the measured effect to its halfway point.

In assay [1] the target is T1, GPR39 receptors on m39-20 cell lines (Mus musculus, UniProt Q5U431, T447P).
T1 construct: P2A-mCherry (C); expressed in transfected cells
T1 sequence (Q5U431 1-456 T447P): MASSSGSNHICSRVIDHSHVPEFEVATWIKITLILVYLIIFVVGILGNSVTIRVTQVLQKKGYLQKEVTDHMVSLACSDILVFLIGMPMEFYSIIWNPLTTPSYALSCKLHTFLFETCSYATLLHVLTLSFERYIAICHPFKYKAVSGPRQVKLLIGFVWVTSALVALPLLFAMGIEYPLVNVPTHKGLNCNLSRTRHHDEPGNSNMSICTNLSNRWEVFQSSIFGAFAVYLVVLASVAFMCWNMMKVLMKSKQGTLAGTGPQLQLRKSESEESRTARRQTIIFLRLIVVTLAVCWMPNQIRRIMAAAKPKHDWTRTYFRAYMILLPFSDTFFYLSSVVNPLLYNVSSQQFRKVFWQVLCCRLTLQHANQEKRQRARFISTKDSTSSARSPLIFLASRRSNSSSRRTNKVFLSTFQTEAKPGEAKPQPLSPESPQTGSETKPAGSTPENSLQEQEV
The assay can be described thus: FLIPR calcium imaging on m39-20 cell lines stably expressing murine-derived GPR39. Type of assay: cell-based. To be noted: for intracellular calcium signals in m39-20 cell lines: FIG. 1. An excerpt:
Intracellular calcium imaging is a routine technique to study cell functions, the basic principle of which is to detect the concentration of the calcium ion in tissues or cells using a calcium indicator, thereby reflecting certain reactions in the tissues or cells. In the present application, the intracellular calcium released from a cell line that stably or transiently expresses GPR39 is detected using Fluo8-AM, a calcium fluorescent indicator, so as to determine the activation of the GPR39 receptor by the bile acid and derivative thereof.
HEK293T cells (purchased from ATCC) were seeded in a 6-well plate (coming Co.) at an appropriate density (about 0.5-2×10^5/well). When the cell density reached above 30%, the plasmid PLVXK-mGPR39-P2A-mCherry was transfected with Lipofectamine 3000 (Invitrogen) at a concentration of 2 μg per well. The cells were passaged 24 hours after transfection, the puromycin (gibco) was added into the medium at a concentration of 2 μg/mL for antibiotic screening of cells. After 2-4 days of continuous screening, the cells screened for puromycin resistance were trypsinized and screened by flow cytometry for monoclones with red fluorescence. And these monoclones were seeded in a 96-well plate and cultured in a medium without puromycin for around 10 days. Cell colonies with red fluorescence were sorted under a fluorescence microscope, trypsinized and then passaged and expanded in a 6-well plate. Cell lines m39-20 stably expressing murine-derived GPR39 were obtained through the above methods.
Calcium dye Fluo8-AM (ATT bioquest Co.) was dissolved in DMSO solvent to formulate a stock solution of 1 μg/μL. […] After then, the calcium dye working solution was replaced with the 4K solution (50 μL per well), and acclimated for 5 min at room temperature for the subsequent calcium imaging experiment.
Bile acids and derivatives thereof as listed in Table 1 below were dissolved in dimethyl sulfoxide (DMSO, Sigma Co.) solvent to formulate a stock solution of 50 mM, which was stored at −20° C. During calcium imaging with FLIPR, the drug was diluted with the above 4K solution into a working concentration of 400 μM, and packaged into another 96-well plate. […] The instrument parameters were set so that 50 μL of the drug solution may be added into the culture wells within 2 s. The fluorescence recording result within the first 30 seconds was used as the baseline value. The FLIPR robot arm was programmed to automatically add bile acids and derivatives thereof into the cell sample culture wells at the 31st second. 1% of DMSO solvent was used as the blank control.
After that, the calcium dye working solution was replaced with a 4K solution containing 4 μM zinc ions (50 μL per well), followed by acclimation for 5 min at room temperature.

Assay [2] deals with T2, human GPR39 receptors on human GPR39-2 cell lines (Homo sapiens, UniProt O43194).
T2 construct: P2A-mCherry (C)
T2 sequence (O43194 1-453): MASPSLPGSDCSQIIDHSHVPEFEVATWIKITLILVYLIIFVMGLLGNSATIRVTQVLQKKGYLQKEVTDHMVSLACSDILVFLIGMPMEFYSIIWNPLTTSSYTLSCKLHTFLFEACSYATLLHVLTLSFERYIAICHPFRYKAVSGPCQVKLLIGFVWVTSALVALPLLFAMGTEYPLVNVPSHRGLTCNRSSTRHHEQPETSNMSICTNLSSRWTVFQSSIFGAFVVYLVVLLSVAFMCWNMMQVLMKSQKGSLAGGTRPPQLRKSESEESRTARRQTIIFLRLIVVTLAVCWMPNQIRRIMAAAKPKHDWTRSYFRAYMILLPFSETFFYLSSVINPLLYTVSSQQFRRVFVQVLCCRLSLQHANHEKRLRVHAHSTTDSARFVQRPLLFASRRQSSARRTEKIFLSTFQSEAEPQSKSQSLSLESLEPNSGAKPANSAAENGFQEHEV
The assay can be described thus: FLIPR calcium imaging on human GPR39-2 cell line stably expressing human GPR39. Type of assay: cell-based. To be noted: for EC50: human GPR39-2 cells. An excerpt:
The human GPR39 cDNA vector was purchased from WZ Biosciences Inc., Shandong. It was cloned onto a lentiviral vector PLVXK-hGPR39-P2A-mCherry (FIG. 10) through PCR amplification using primers hGPR39-F (which sequence was shown as set forth in SEQshown as set forth in SEQ ID NO: 15) and hGPR39-R (which sequence was shown as set forth in SEQ shown as set forth in SEQ ID NO: 16), in which the sequence of the target gene human GPR39 cDNA was shown as set forth in SEQ shown as set forth in SEQ ID NO: 14. A cell line human GPR39-2 stably expressing human GPR39 gene was constructed according to the method of Example 1.

Each structure is given as a SMILES string. Where two headings read alike, the source gives them in different places.

With `C[C@H](CCC(=O)O)[C@H]1CC[C@H]2[C@@H]3CC[C@@H]4C[C@H](OS(=O)(=O)O)CC[C@]4(C)[C@H]3CC[C@]12C` [LCAS], the EC50 in assay [1] (Bile acid + 4 μM zinc ions EC50, m39-20 cells, 4 μM zinc ions) worked out at 0.88 ± 0.16 µM; in assay [1] (m39-20 cells, no zinc ions, read-out: Only bile acid EC50), 41 ± 4.5 µM; in assay [1] (m39-20 cells, zinc ions 0 μM, read-out: EC50) it was 31 ± 2.1 µM; in assay [1] (m39-20 cells, zinc ions 0.05 μM, read-out: EC50), 30.7 ± 2.4 µM; in assay [1] (m39-20 cells, zinc ions 0.1 μM, read-out: EC50), 30.6 ± 2 µM; in assay [1] (m39-20 cells, zinc ions 0.2 μM, read-out: EC50), 25.4 ± 1.1 µM. Further, the EC50 in assay [1] (m39-20 cells, zinc ions 0.4 μM, read-out: EC50) amounted to 20.1 ± 0.67 µM; in assay [1] (m39-20 cells, zinc ions 1 μM, read-out: EC50), 6.4 ± 0.67 µM; in assay [1] (m39-20 cells, zinc ions 2 μM, read-out: EC50), 1.9 ± 0.03 µM; in assay [1] (m39-20 cells, zinc ions 4 μM, read-out: EC50), 0.7 ± 0.03 µM; in assay [2] (EC50 Agonist + 4 μM zinc ions, 4 μM zinc ions), 0.97 ± 0.3 µM. Further, in assay [1], the “intracellular calcium signals in m39-20 cell lines” value is reported as “varying extents of intracellular calcium signals”. The “intracellular calcium signaling response in m39-20 cells” value in assay [1] (absence of zinc ions) is given as “strong intracellular calcium signaling response”. For the same compound, the “Only bile acid Efficacy” value in assay [1] (activation efficacy, m39-20 cells, no zinc ions) was determined as 111.1 ± 3.9%. The “change of activation efficacy after the addition of zinc ions” value in assay [1] (m39-20 cells, Table 1, FIG. 2) is on record as “increases slightly”. Further, the “activation capacity on GPR39 receptors among the bile acids” value in assay [1] (m39-20 cells, dose curves) is “strongest activation capacity”. Moreover, the “intracellular calcium signal response of human GPR39-2” value in assay [2] (FIG. 9) is on record as “capable of inducing intracellular calcium signal response”.
For `[Zn+2]` [Zinc ions, reference compound], in assay [1], the “intracellular calcium signals in m39-20 cell lines” value is listed as “inducing intracellular calcium signals”. Also, in assay [2] (no added zinc ions, read-out: EC50 Only agonist), the EC50 came to 12 ± 2.8 µM.
